Measured values published in patent publication US20100234377A1 (priority 2007, published 2010).
Where two headings read alike, the source gives them in different places.

What was measured:
[1] = tested on: B6.V Lep^ob mice (ob/ob mice); experiment: Pharmacological study: body weight and food intake of treated ob/ob mice; format: in vivo, mouse; settings: male ob/ob mice, 120 mg/kg/day by oral gavage, 12 days of treatment, versus vehicle
Experimental: FIG. 1 is a body weight curve graph which plots the body weight and food intake of mice over time. Some of the mice are given food only whereas some are given food together with Compound 22 below.
16 Male ob/ob mice were obtained from Charles River in Belgium at an approximate age of 6 weeks and with an approximate mean body weight of 35 g at the beginning of substance administration. Mice were housed 4 per cage at a temperature of 23° C.±1 and a day/night cycle of 14/10 hours (05:00-19:00-05:00), with ad libitum access to standard chow and tap water. Mice were allowed to adapt to these conditions for 8 days prior to the start of treatment. Animals were administered substance by oral gavage in the morning at 07:00, immediately after determining body weight and food consumption. In the evening substance was administered at 19:00. One group of 8 animals were administered vehicle, 0.3% methylcellulose in saline, and the second group of 8 animals were administered Compound 22 (120 mg/kg/day) suspended in the vehicle. Body weight and food consumption were recorded daily during 12 days of treatment and the results are presented in FIG. 1, which is a body weight curve graph. This illustrates a 7% reduced weight gain in Compound 22 administered ob/ob mice, despite unaltered food intake.

[2] = target: T1, PPARγ (h) (Homo sapiens, UniProt P37231); experiment: PPARγ receptor binding assay ([3H]rosiglitazone); settings: Table 3; [3H]rosiglitazone 10 nM, human recombinant
T1 construct: host or cells: E. coli
T1 sequence (P37231 1-505): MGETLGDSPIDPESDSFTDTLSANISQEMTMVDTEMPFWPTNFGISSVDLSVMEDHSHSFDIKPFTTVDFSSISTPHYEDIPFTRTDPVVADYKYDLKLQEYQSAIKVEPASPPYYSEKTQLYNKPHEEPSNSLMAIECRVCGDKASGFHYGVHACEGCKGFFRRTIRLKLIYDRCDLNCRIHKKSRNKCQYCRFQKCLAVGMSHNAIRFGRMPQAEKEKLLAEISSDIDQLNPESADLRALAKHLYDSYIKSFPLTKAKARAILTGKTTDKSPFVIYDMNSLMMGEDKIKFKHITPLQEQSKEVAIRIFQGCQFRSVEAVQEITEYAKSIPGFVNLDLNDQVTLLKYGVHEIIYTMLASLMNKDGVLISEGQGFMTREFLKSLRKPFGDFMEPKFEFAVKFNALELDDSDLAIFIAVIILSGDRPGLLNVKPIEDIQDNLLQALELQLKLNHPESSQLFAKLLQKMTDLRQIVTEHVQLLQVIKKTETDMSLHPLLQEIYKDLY
Text: Selected GST2 Inhibitors Screened Against PPARγ and KATP Channel Modulator Assays
Selected GST2 inhibitors of General Formula (I) were screened in a PPARγ assay to determine their modulator effects.
(§1) The specific ligand binding to the receptor is defined as the difference between the total binding and the non-specific binding determined in the presence of an excess of unlabelled ligand. The results are expressed as a percent inhibition of control specific binding obtained in the presence of the test compounds.
(§2) In each experiment, the respective reference compound was tested concurrently with the test compounds in order to assess the assay suitability. It was tested at several concentrations (for IC50 value determination), and the data were compared with historical values.

[3] = target: T2, human Prostaglandin D Synthase (GST2) (Homo sapiens, UniProt O60760); experiment: Homogeneous biochemical assay of human Prostaglandin D Synthase (GST2) based on its glutathion-S-transferase activity (GSH conjugation to monochlorobimane, fluorescence)
T2 construct: the open reading frame of human Prostaglandin D Synthase was amplified from cDNA; made in house; host or cells: E. coli TOP10F'
Method in brief: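 N-His-tagged human PGD synthase from E. coli, assayed via its GST activity: GSH conjugation to monochlorobimane in 50 mM MES/KOH pH 6.1, 0.7 mM GSH, 2 mM MgCl2. Compounds at final picomolar to triple-digit micromolar concentrations.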

[4] = target: K+ATP channel (Rattus norvegicus, UniProt Q09429); experiment: KATP channel receptor binding assay ([3H]glibenclamide); settings: [3H]glibenclamide 0.1 nM, rat cerebral cortex
Experimental: KATP Channel Mediated Binding Assay
The compounds of Comparative Examples I to XII and Compounds 59, 30, 22, 76 and 69 were tested for their effects in an in vitro receptor binding KATP channel assay.
as §1, §2

[5] = Mouse microsomal metabolism assay; format: in vitro ADME; settings: liver microsomes; mouse hepatic microsomes, 37° C., phosphate buffer pH 7.4, NADPH regenerating system; read-out: Mouse t½
Experimental: Selected GST2 Inhibitors from Formula I Assessed in Mouse Microsomal Metabolism Assay
Selected GST2 inhibitors of General Formula (I) were screened in a mouse hepatic microsome assay to determine microsomal metabolism.
Test Articles were prepared in 50% acetonitrile.
Mouse hepatic microsomes supplied by BD GenTest Inc or an equivalent reputable supplier.
Test Articles are added to incubation plates containing phosphate buffer pH 7.4 and microsomes at a suitable protein concentration. Incubation plates are placed on a shaking water bath at 37° C. for 5 minutes pre-incubation. An aliquot of the reaction mixture is taken and added to acetonitrile (3:1). This is designated time […]. NADPH regenerating system in phosphate buffer pH 7.4 is added to initiate reactions. Aliquots from the incubation wells are taken at a number of time points and added to acetonitrile. Control incubations contained no microsomes or compounds with known microsomal stabilities. Samples were subject to centrifugation to remove denatured protein and the supernatants were analysed by LCMS.
Half lives were calculated from the log vs time transformed data according to the following equation: […]
Where λ is the slope of the linear regression line under first order (Test Article concentration <Km) conditions.

T2 sequence (O60760 whole entry): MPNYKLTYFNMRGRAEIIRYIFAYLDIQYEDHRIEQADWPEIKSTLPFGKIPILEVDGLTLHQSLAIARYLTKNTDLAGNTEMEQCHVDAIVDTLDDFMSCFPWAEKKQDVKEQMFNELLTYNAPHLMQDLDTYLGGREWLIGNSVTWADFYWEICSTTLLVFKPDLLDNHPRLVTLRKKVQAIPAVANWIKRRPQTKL
Sequence of K+ATP channel (Q09429 whole entry): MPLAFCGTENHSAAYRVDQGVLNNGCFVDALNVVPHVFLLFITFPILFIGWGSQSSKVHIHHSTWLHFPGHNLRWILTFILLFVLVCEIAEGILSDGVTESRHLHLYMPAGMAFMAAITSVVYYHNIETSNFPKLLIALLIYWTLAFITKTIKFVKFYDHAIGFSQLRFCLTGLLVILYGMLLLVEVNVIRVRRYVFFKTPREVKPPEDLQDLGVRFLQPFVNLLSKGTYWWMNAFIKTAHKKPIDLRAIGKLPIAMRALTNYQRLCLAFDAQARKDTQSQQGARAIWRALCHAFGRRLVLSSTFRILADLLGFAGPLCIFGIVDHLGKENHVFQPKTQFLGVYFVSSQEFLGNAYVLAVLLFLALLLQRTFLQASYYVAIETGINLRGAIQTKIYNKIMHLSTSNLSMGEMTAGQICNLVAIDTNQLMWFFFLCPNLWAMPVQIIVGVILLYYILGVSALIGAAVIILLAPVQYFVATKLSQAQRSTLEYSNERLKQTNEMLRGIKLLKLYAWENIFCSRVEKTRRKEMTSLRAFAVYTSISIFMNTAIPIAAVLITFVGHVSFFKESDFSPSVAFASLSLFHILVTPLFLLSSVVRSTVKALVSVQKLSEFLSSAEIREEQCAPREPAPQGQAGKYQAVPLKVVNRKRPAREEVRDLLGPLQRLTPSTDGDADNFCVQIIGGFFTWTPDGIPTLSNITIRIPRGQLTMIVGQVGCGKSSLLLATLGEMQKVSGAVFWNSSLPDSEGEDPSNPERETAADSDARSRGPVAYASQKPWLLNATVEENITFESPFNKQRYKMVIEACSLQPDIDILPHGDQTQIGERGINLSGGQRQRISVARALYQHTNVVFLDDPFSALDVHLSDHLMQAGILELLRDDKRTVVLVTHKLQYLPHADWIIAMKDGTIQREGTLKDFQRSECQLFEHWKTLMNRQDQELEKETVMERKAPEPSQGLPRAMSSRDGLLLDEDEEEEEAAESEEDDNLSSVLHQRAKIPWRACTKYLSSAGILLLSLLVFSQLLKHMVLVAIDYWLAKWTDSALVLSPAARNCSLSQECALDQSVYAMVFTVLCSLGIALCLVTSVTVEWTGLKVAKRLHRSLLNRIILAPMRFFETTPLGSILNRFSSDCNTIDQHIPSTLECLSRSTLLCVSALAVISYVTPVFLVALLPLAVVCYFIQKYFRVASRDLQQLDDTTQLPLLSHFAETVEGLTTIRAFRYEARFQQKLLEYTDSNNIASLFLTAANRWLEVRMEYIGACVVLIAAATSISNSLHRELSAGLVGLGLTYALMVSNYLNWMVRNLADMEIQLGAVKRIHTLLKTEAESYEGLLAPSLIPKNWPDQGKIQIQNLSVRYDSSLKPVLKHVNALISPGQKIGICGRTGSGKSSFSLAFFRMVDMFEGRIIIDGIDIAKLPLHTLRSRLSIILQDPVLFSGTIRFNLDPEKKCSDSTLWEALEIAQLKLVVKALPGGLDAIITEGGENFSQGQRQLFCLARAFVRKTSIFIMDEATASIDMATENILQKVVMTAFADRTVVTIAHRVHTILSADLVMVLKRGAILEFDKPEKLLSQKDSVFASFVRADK
Sequence of K+ATP channel (P70673 whole entry partner): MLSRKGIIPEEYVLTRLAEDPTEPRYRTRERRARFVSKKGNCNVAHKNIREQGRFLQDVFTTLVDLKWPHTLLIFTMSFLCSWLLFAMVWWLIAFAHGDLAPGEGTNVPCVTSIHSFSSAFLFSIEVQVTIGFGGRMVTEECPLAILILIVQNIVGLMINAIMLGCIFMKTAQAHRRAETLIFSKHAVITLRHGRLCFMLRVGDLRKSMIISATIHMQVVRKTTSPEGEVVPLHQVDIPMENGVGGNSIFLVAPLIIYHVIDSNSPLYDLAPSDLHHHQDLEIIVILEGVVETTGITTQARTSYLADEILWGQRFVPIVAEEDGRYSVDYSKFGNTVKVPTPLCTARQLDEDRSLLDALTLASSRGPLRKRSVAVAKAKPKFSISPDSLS

O=C(Nc1ccc(C(F)(F)F)cc1)N1CCN(C(=O)c2cccc(F)n2)CC1 [Compound 22, 4-(6-Fluoro-pyridine-2-carbonyl)-piperazine-1-carboxylic acid (4-trifluoromethyl-phenyl)-amide]
reduced weight gain [1]: 7% | PPARγ (% Inhibition of Control Specific Binding) [2]: 1% | IC50 ([3]; Table 1, read-out: GST2 IC50 Range): 0.101 to 1 µM | IC50 ([3]; Table 3, read-out: GST2 IC50 range): 0.101 to 1 µM | IC50 ([3]; given beside the compound name in Examples 1 to 167, read-out: Potency Range (GST2 IC50)): 0.101 to 1 µM | inhibition at 10 µM ([4]; Table 1, 10 μM compound concentration, read-out: K^+ATP Channel (% Inhibition of Control Specific Binding)): 1% | K+ATP Channel (% Inhibition of Control Specific Binding) ([4]; Table 3): 14% | half-life [5]: > 1 h
